PMC12114633, “α-Glucosidase Inhibition Mechanism and Anti-Hyperglycemic Effects of Flavonoids from Astragali Radix and Their Mixture Effects” (Pharmaceuticals, 2025)
Where two headings read alike, the source gives them in different places.

Assays:
[1] = target: T1, Saccharomyces cerevisiae α-glucosidase (Saccharomyces cerevisiae, UniProt P53341); assay: biochemical; settings: 5 mM pNPG, PBS pH 6.8, 37 °C
T1 construct: purchased Shanghai Yuanye Biotechnology Co., Shanghai, China Lot No. M23HS178879 (catalogue number not given)
Description: (§1) The α-glucosidase inhibitory effects of flavonoids were evaluated as in a previous report with slight modifications (including changes in the concentrations of the enzyme, substrate, and Na2CO3). Briefly, 50 μL of phosphate-buffered saline (PBS, 0.1 M, pH 6.8), the test compound, and α-glucosidase (0.2 U/mL) were preincubated in a 96-well plate at 37 °C for 10 min. The reaction was then initiated by adding 50 μL of 5 mM pNPG as the substrate. Subsequently, the 96-well plate was incubated for an additional 30 min at 37 °C, then 50 μL of 0.2 M Na2CO3 was added to terminate the reaction. Absorbance was measured at under 405 nm.

α-glucosidase [2] = target: T2, α-glucosidase (Saccharomyces cerevisiae, UniProt P53341); assay: Inhibitory kinetic analysis (Lineweaver–Burk plot); assay type: biochemical; settings: Lineweaver–Burk plots, pNPG 0.31–20 mM
T2 construct: purchased Shanghai Yuanye Biotechnology Co., Shanghai, China Lot No. M23HS178879 (catalogue number not given)
Description: The type of inhibition was determined by using the kinetics curve and the Lineweaver–Burk plot. […] These compounds were incubated with α-glucosidase at 37 °C for 30 min. After incubation, various concentrations of pNPG (0.31–20 mM) were added, and absorbance was measured at 405 nm. The Lineweaver–Burk plot was obtained by plotting 1/[S] on the x-axis and 1/v on the y-axis, where [S] represents substrate concentration and v represents the reaction velocity.

α-glucosidase [3] = target: T2, α-glucosidase; assay: CD spectroscopy, secondary structure of α-glucosidase (BeStSel); settings: for β-turn: free enzyme 11.7; for β-sheet: free enzyme 28.8; for random coil: free enzyme 45.2; for α-helix: free enzyme 14.4
Description: CD spectra in the far-UV region (190–250 nm) were scanned by using a CD spectrometer (JASCO-1.5 Tokyo, Japan). […] The slit width was set to 1 nm, and the baseline was calibrated with PBS (phosphate buffered saline). CD spectra were averaged over three scans under a constant nitrogen flow, with the buffer signal subtracted. The results were analyzed using the BeStSel database (https://bestsel.elte.hu/index.php, accessed on 16 May 2025).

α-glucosidase [4] = target: T2, α-glucosidase; assay: biochemical; assay type: binding; settings: for binding to α-glucosidase (SPR): result in words
Description: SPR analysis was performed using the Biacore 8K system (GE Healthcare, Uppsala, Sweden). α-Glucosidase (0.05 mg/mL) was fixed on the CM5 sensor chip by an amine coupling kit. Subsequently, various concentrations of the 16 flavonoids dissolved in 5% DMSO were continuously injected onto the surface of α-glucosidase coated surface. After each sample injection, the sensor chip surface was washed and regenerated with running buffer (PBS) at a flow rate of 30 µL/min. According to the 1:1 Langmuir model, the equilibrium dissociation constant (KD) was calculated by the Biacore evaluation software. For sensorgrams without significant kinetic features, the KD values were calculated using the steady-state analysis.

α-glucosidase [5] = settings: cited from earlier work
normal C57BL/6J mice = assay: Oral sucrose test, postprandial blood glucose; assay type: in vivo; settings: for Blood glucose levels: 30 min after sucrose 4 g/kg, n = 8, in mmol/L (unit assumed); for Rate of blood glucose reduction: vs model group, 30 min after sucrose
Description: Male C57BL/6J mice of SPF grade, aged 6–8 weeks and weighing 18–22 g, were obtained from the Experimental Animal Science Department of Peking University. The mice were housed in a controlled environment with a 12:12 light/dark cycle and a constant temperature. They were provided with standard pellet feed and given free access to drinking water. To ensure acclimatization, the mice were allowed to adjust to the diet and housing conditions for one week prior to the experiment. All animal experiments were performed in compliance with the relevant laws and institutional guidelines for the care and use of laboratory animals in China. The experiments were approved by the Laboratory Animal Management and Ethics Committee of Peking University (LA2021443). Additionally, the certification number for the laboratory animal personnel is 1120111300011.
The 16 flavonoids were subsequently evaluated for their potential antihyperglycemic effects by using the oral sucrose test, which is commonly used to evaluate intestinal α-glucosidase inhibition in vivo [62]. Normal C57BL/6J mice were randomly divided into model groups and the 16 flavonoid compound groups (n = 8 per group), respectively. The flavonoids at different concentrations were suspended in 0.5% sodium carboxymethyl cellulose (CMC-Na). […] Fifteen minutes after drug administration, the mice were given a sucrose solution (4 g/kg). Blood samples were collected from the tail vein at 30 min after sucrose loading, and blood glucose levels were measured using an Accu-Chek Performa glucometer (Roche Diagnostics, SN: 79508621393, Shanghai, China). The rate of blood glucose reduction was calculated using the following Formula (4):(4) The rate of blood glucose reduction%=the model blood glucose-the sample blood glucose/the model blood glucose×100%

α-glucosidase [6] = target: T2, α-glucosidase; assay: Mixture effects of flavonoid combinations on α-glucosidase; assay type: biochemical; settings: calculated from the dose–response curve
Description: as §1
The inhibitory activity of the composition was evaluated using the same method described in Section 3.2. […] The combination index (CI, Formula (3)) was subsequently used to assess the interactions between the compounds [60].(2) Y=Bottom+Top−Bottom/1+10^^((LogIC50−X)×HillSlope)
In Formula (3), (D)j represents the concentration of component j in the mixture needed to achieve an effect of x, while (Dx)j denotes the concentration of component j required to produce the same effect when acting alone. Here, x refers to the inhibition rate produced by the composition, and n indicates the number of individual compounds in the composition.

[7] = molar ratio 10:1, α-glucosidase 4 μM
[8] = molar ratio 40:1, α-glucosidase 4 μM
[9] = molar ratio compound:α-glucosidase 10:1, α-glucosidase 4 μM
[10] = literature values, reference given, read-out: IC50 in References
[11] = α-glucosidase 0.2 U/mL, read-out: IC50
[12] = kinetic model (1:1 Langmuir), read-out: KD

T2 sequence (P53341 whole entry): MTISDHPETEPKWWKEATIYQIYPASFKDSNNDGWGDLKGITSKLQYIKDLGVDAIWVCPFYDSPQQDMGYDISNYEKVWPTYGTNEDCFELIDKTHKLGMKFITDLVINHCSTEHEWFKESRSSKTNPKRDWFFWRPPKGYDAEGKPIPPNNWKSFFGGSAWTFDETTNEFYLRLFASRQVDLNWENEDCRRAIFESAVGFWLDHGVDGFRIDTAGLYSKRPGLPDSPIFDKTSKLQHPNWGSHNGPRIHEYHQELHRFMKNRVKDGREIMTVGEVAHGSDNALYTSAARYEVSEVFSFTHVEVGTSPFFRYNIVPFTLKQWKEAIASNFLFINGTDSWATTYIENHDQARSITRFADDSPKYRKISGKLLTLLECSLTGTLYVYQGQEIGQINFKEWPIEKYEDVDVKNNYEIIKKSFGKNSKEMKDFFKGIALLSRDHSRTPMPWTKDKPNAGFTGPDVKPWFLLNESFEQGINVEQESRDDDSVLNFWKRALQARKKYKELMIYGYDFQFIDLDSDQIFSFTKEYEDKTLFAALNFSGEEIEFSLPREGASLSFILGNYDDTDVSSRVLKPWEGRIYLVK
T1 sequence (P53341 whole entry): as above

Compound	IC50 ([1]; IC50, α-glucosidase 0.2 U/mL) [µM]	type of inhibition on α-glucosidase (α-glucosidase [2])	β-turn (α-glucosidase [3]; [7]) [%]	β-sheet (α-glucosidase [3]; [7]) [%]	random coil (α-glucosidase [3]; [7]) [%]	β-turn (α-glucosidase [3]; [8]) [%]	α-helix (α-glucosidase [3]; [8]) [%]	β-sheet (α-glucosidase [3]; [8]) [%]	random coil (α-glucosidase [3]; [8]) [%]	α-helix (α-glucosidase [3]; [9]) [%]	Kd (α-glucosidase [4]) [µM]	binding to α-glucosidase (SPR) (α-glucosidase [4])	Blood glucose levels (normal C57BL/6J mice; 10 mg/kg oral)	Rate of blood glucose reduction (normal C57BL/6J mice; 10 mg/kg oral) [%]	Blood glucose levels (normal C57BL/6J mice; 50 mg/kg oral)	Rate of blood glucose reduction (normal C57BL/6J mice; 50 mg/kg oral) [%]	Blood glucose levels (normal C57BL/6J mice; 100 mg/kg oral)	Rate of blood glucose reduction (normal C57BL/6J mice; 100 mg/kg oral) [%]	IC05 (α-glucosidase [6]) [µM]	further results
O=c1c(-c2ccc(O)cc2)coc2cc(O)ccc12 [C11, daidzein]	83.7 ± 20.2	non-competitive inhibitors	12.7	28.8	40.8	14.3	14.6	25.5	45.5	17.7	20	–	–	–	–	–	–	–	–	IC50 (α-glucosidase [5]; [10]): 150 µM
COc1ccc(C2COc3cc(O)ccc3C2)c(O)c1OC (stereo not shown) [C17, isomucronulatol]	354 ± 40.4	mixed-type inhibitors	11.7	24.3	49.4	13.6	17.4	31.3	37.8	14.6	> 2000	did not show binding	14.46 ± 0.69	6.32	14.29 ± 0.80	7.45	13.24 ± 1.18	14.25	–	–
COc1cc(-c2oc3cc(O)cc(O)c3c(=O)c2OC2OC(CO)C(O)C(O)C2O)ccc1O (stereo not shown) [C14, isorhamnetin-3-O-glucoside]	–	mixed-type inhibitors	12.8	33.7	40.4	15.7	7.80	19.8	56.6	13.1	–	–	14.84 ± 0.62	-2.50	12.66 ± 0.48	12.52	12.19 ± 0.81	15.80	–	IC50 [1, 11]: 228 ± 34 µM; Kd (α-glucosidase [4]; [12]): 383 µM; IC50 (α-glucosidase [5]; [10]): 275 µM
O=C(/C=C/c1ccc(O)cc1)c1ccc(O)cc1O [C4, isoliquiritigenin]	69.1 ± 10.7	mixed-type inhibitors	11.7	31.0	42.3	12.1	14.1	24.1	49.7	15.0	> 2000	did not show binding	12.81 ± 1.00	8.07	13.05 ± 1.44	6.37	–	–	9.73	IC15 (concentration corresponding to a 15% inhibition rate) (α-glucosidase [6]): 20 µM; Blood glucose levels (normal C57BL/6J mice; 250 mg/kg oral): 11.90 ± 0.62; Rate of blood glucose reduction (normal C57BL/6J mice; 250 mg/kg oral): 14.62%
Oc1ccc([C@H]2COc3cc(O)ccc3C2)cc1 [C29, equol]	131 ± 7.65	mixed-type inhibitors	14.5	23.5	51.1	13.2	8.50	23.4	55.0	10.9	849	–	14.70 ± 1.36	8.20	13.93 ± 0.62	13.04	12.56 ± 1.87	21.55	–	–
O=C1C[C@@H](c2ccc(O)cc2)Oc2cc(O)ccc21 [C3, liquiritigenin]	161 ± 36.3	non-competitive inhibitors	14.2	18.0	56.1	16.2	8.00	16.6	59.2	11.7	> 2000	did not show binding	14.06 ± 1.45	-0.90	13.19 ± 1.35	5.38	11.58 ± 1.23	16.95	13.71	–
COc1ccc2c(c1OC)OC1c3ccc(O[C@@H]4O[C@H](CO)[C@@H](O)[C@H](O)[C@H]4O)cc3OCC21 (stereo partly shown) [C19, astrapterocarpan-3-O-glucoside]	–	non-competitive inhibitors	10.7	26.7	39.9	10.2	43.2	6.70	39.9	22.6	–	–	13.71 ± 0.78	11.17	–	–	13.31 ± 0.58	13.77	82.58	IC50 [1, 11]: 348 ± 32.4 µM; Kd (α-glucosidase [4]; [12]): 30 µM; Blood glucose levels (normal C57BL/6J mice; 1 mg/kg oral): 14.30 ± 1.16; Rate of blood glucose reduction (normal C57BL/6J mice; 1 mg/kg oral): 7.37%
CC(=O)Cc1cc(=O)c2c(C)cc(O)c([C@@H]3O[C@H](CO)[C@@H](O)[C@H](O)[C@H]3OC(=O)/C=C/c3ccc(O)cc3)c2o1 [Aloeresin A, reference compound]	–	–	–	–	–	–	–	–	–	–	–	–	–	–	–	–	–	–	–	IC50 (α-glucosidase [5]; read-out: IC50): 11900 µM
aquilarixanthone [reference compound]	–	–	–	–	–	–	–	–	–	–	–	–	–	–	–	–	–	–	–	IC50 (α-glucosidase [5]; read-out: IC50): 678 µM
